This is an account of results in PubChem BioAssay AID1053168 (Broad Institute, 2014).

Experiment [1] can be described thus: Vaccinia infected cells, stage specific inhibitors, mcherry venus reporter fluorescence, confirmatory dose response (AID 1053168). The conditions noted are these: Vaccinia-infected cells, mCherry/Venus stage reporter fluorescence.
In experiment [2] the test system is Vaccinia-infected cells, mCherry/Venus stage reporter fluorescence. Described as above.
Setting [3] is: measured here: mCherry reporter AC50.
Where [4] appears, read: measured here: Venus reporter AC50.

As a reminder, the AC50 is the concentration giving half of the maximal activity seen. Lower therefore signals greater potency.

Active and inactive are the calls of the source. No rule for the calls is given here. Some results are limits rather than exact numbers.

Turning to `COc1ccccc1CN1CC[C@H]2[C@H](CO)Nc3ccc(-c4ccc(C(=O)N(C)C)cc4)cc3[C@H]21`, in experiment [1] (at 21 µM (top of the series)), the activity change, negative = inhibition was -16.1% (inactive). For the same compound, the AC50 in experiment [2] (setting [3]) was > 42 µM.

As for `N#Cc1ccc(-c2ccc3c(c2)[C@@H]2[C@@H](CCN2C(=O)C2CCCCC2)[C@@H](CO)N3)cc1`, in experiment [1] (at 21 µM (top of the series)), the activity change, negative = inhibition was -10.8% (inactive). Moreover, the concentration at half-maximal activity (AC50) in experiment [2] (setting [4]) was > 42 µM.

`COc1ccccc1CN1CC[C@@H]2[C@@H](CO)Nc3ccc(-c4ccc(C(=O)N(C)C)cc4)cc3[C@@H]21`: the activity change, negative = inhibition in experiment [1] (at 21 µM (top of the series)) is -12.1% (inactive). Also, the AC50 in experiment [2] (setting [4]) and in experiment [2] (setting [3]) was > 42 µM each time.

For the compound `C[C@H]1CCCCO[C@H](CN(C)S(=O)(=O)c2ccc(Cl)cc2)[C@@H](C)CN([C@@H](C)CO)C(=O)c2cc(NC(=O)Nc3ccc(F)cc3)ccc2O1`, in experiment [1] (at 21 µM (top of the series)), the activity change, negative = inhibition was -17.8% (inactive). Further, the AC50 in experiment [2] (setting [4]) and in experiment [2] (setting [3]) was > 42 µM throughout.

On to `C[C@H](O)C#Cc1ccc2c(c1)O[C@H](CN(C)Cc1ccc(-c3ccccc3)cc1)[C@H](C)CN([C@@H](C)CO)S2(=O)=O`, for which the activity change, negative = inhibition in experiment [1] (at 21 µM (top of the series)) is -17.3% (inactive). The concentration at half-maximal activity (AC50) in experiment [2] (setting [4]) and in experiment [2] (setting [3]) was > 42 µM in each case.

Turning to `CCCNC(=O)N(C)C[C@@H]1Oc2ncc(C#CC3CCCCC3)cc2C(=O)N([C@H](C)CO)C[C@@H]1C`, the activity change, negative = inhibition in experiment [1] (at 21 µM (top of the series)) is -19.2% (inactive). In addition, the half-maximal activity concentration (AC50) in experiment [2] (setting [4]) was > 42 µM.

On to `C[C@@H](O)C#Cc1ccc2c(c1)O[C@@H](CN(C)Cc1ccccc1)[C@@H](C)CN([C@@H](C)CO)S2(=O)=O`, for which, in experiment [1] (at 21 µM (top of the series)), the activity change, negative = inhibition is -38% (inactive).

For `CCCNC(=O)C[C@H]1CC[C@@H]2[C@@H](COc3ccc(NC(=O)CCC)cc3C(=O)N2C)O1`, the activity change, negative = inhibition in experiment [1] (at 21 µM (top of the series)) is 2.55% (inactive).

Regarding `CN1c2ccc(C#Cc3cccnc3)cc2[C@H]2[C@H](CCN2C(=O)C2CCCCC2)[C@@H]1CO`, the activity change, negative = inhibition in experiment [1] (at 21 µM (top of the series)) is 9.03% (inactive).

Consider `COc1ccccc1CN1CC[C@@H]2[C@H]1c1cc(-c3ccc(C(=O)N(C)C)cc3)ccc1N[C@@H]2CO`, for which the activity change, negative = inhibition in experiment [1] (at 21 µM (top of the series)) is -27.4% (inactive). For the same compound, the AC50 in experiment [2] (setting [3]) is > 42 µM.

In the case of `CN1c2ccc(C#Cc3cccnc3)cc2[C@H]2[C@H](CCN2C(=O)C2CCCCC2)[C@H]1CO`, in experiment [1] (at 21 µM (top of the series)), the activity change, negative = inhibition is 19.5% (inactive).

For `CN1c2ccc(C#Cc3cccnc3)cc2[C@@H]2[C@@H](CCN2C(=O)C2CCC2)[C@H]1CO`, the activity change, negative = inhibition in experiment [1] (at 21 µM (top of the series)) was -4.64% (inactive).

On to `C[C@H](O)C#Cc1ccc2c(c1)O[C@H](CN(C)Cc1ccccc1)[C@@H](C)CN([C@H](C)CO)S2(=O)=O`, for which the activity change, negative = inhibition in experiment [1] (at 21 µM (top of the series)) is -3.87% (inactive). The AC50 in experiment [2] (setting [3]) was > 42 µM.

For `C[C@H](O)C#Cc1ccc2c(c1)O[C@H](CN(C)Cc1ccccc1)[C@H](C)CN([C@@H](C)CO)S2(=O)=O`, in experiment [1] (at 21 µM (top of the series)), the activity change, negative = inhibition was -6.79% (inactive).

As to `OC[C@H]1Nc2ccc(-c3cccc(F)c3)cc2[C@H]2[C@@H]1CCN2Cc1ccc(F)cc1`, the activity change, negative = inhibition in experiment [1] (at 21 µM (top of the series)) is -30.8% (inactive). The concentration at half-maximal activity (AC50) in experiment [2] (setting [3]) is > 42 µM.

For `C[C@H](O)C#Cc1ccc2c(c1)O[C@@H](CN(C)Cc1ccc(-c3ccccc3)cc1)[C@H](C)CN([C@H](C)CO)S2(=O)=O`, the activity change, negative = inhibition in experiment [1] (at 21 µM (top of the series)) is -20.1% (inactive). Also, the concentration at half-maximal activity (AC50) in experiment [2] (setting [3]) is > 42 µM.

Turning to `C[C@@H](O)C#Cc1ccc2c(c1)O[C@H](CN(C)Cc1ccccc1)[C@@H](C)CN([C@@H](C)CO)S2(=O)=O`, the activity change, negative = inhibition in experiment [1] (at 21 µM (top of the series)) was -5.1% (inactive). For the same compound, the AC50 in experiment [2] (setting [3]) is > 42 µM.

For the compound `C[C@H](CO)N1C[C@H](C)[C@H](CN(C)Cc2ccc(-c3ccccc3)cc2)Oc2cc(C#C[C@@H](C)O)ccc2S1(=O)=O`, the activity change, negative = inhibition in experiment [1] (at 21 µM (top of the series)) was -20% (inactive). Besides, the AC50 in experiment [2] (setting [4]) and in experiment [2] (setting [3]) was > 42 µM each time.

Consider `Cc1noc(C)c1S(=O)(=O)Nc1ccc2c(c1)C(=O)N([C@@H](C)CO)C[C@@H](C)[C@H](CN(C)S(=O)(=O)c1cccs1)O2`, for which the activity change, negative = inhibition in experiment [1] (at 21 µM (top of the series)) was -3.33% (inactive).

On to `O=C(Nc1ccc2c(c1)[C@@H]1C[C@@H](CC(=O)N3CCCCC3)O[C@@H](CO)[C@@H]1O2)Nc1ccccc1F`, for which the activity change, negative = inhibition in experiment [1] (at 21 µM (top of the series)) was 3.1% (inactive).

Take `C[C@@H](O)C#Cc1ccc2c(c1)O[C@@H](CN(C)Cc1cccnc1)[C@@H](C)CN([C@@H](C)CO)S2(=O)=O`: the activity change, negative = inhibition in experiment [1] (at 21 µM (top of the series)) is 6.15% (inactive).

As for `O=C(Nc1ccc2c(c1)[C@@H]1C[C@@H](CC(=O)N3CCc4ccccc4C3)O[C@@H](CO)[C@@H]1O2)Nc1ccccc1F`, the activity change, negative = inhibition in experiment [1] (at 19.5 µM (top of the series)) is -50.6% (inactive).

For the compound `CCOC(=O)[C@@H]1[C@@H]2C=C[C@]3(O2)[C@H](C(=O)NCc2ccccc2)N(CCCCCCO)C(=O)[C@@H]13`, the activity change, negative = inhibition in experiment [1] (at 21 µM (top of the series)) was -18.7% (inactive). The AC50 in experiment [2] (setting [4]) and in experiment [2] (setting [3]) was > 42 µM in each case.

For `C[C@H](O)C#Cc1ccc2c(c1)O[C@H](CN(C)Cc1ccccc1)[C@H](C)CN([C@H](C)CO)S2(=O)=O`, the activity change, negative = inhibition in experiment [1] (at 21 µM (top of the series)) was -3.27% (inactive).

In the case of `C[C@H](CO)N1C[C@H](C)[C@H](CN(C)Cc2ccccc2)Oc2cc(C#C[C@@H](C)O)ccc2S1(=O)=O`, in experiment [1] (at 21 µM (top of the series)), the activity change, negative = inhibition is 1.54% (inactive).

For the compound `C[C@H](O)C#Cc1ccc2c(c1)O[C@@H](CN(C)Cc1ccccc1)[C@H](C)CN([C@H](C)CO)S2(=O)=O`, the activity change, negative = inhibition in experiment [1] (at 21 µM (top of the series)) is -12.7% (inactive). For the same compound, the AC50 in experiment [2] (setting [4]) and in experiment [2] (setting [3]) was > 42 µM each time.

Consider `C[C@@H]1CN([C@H](C)CO)S(=O)(=O)c2ccc(C#C[C@@H](C)O)cc2O[C@@H]1CN(C)Cc1ccccc1`, for which, in experiment [1] (at 21 µM (top of the series)), the activity change, negative = inhibition was -2.36% (inactive).

For the compound `C[C@H](O)C#Cc1ccc2c(c1)O[C@@H](CN(C)Cc1ccc(-c3ccccc3)cc1)[C@@H](C)CN([C@@H](C)CO)S2(=O)=O`, in experiment [1] (at 21 µM (top of the series)), the activity change, negative = inhibition was -12.2% (inactive). Moreover, the AC50 in experiment [2] (setting [4]) and in experiment [2] (setting [3]) was > 42 µM each time.

Take `C[C@H](CO)N1C[C@H](C)[C@@H](CN(C)Cc2ccc(-c3ccccc3)cc2)Oc2cc(C#C[C@@H](C)O)ccc2S1(=O)=O`: the activity change, negative = inhibition in experiment [1] (at 21 µM (top of the series)) is -19.5% (inactive). For the same compound, the AC50 in experiment [2] (setting [3]) is > 42 µM.

On to `CN1c2ccc(-c3ccc(C#N)cc3)cc2[C@@H]2[C@@H](CCN2C(=O)C2CCCCC2)[C@H]1CO`, for which the activity change, negative = inhibition in experiment [1] (at 21 µM (top of the series)) was -26% (inactive). The AC50 in experiment [2] (setting [4]) was > 42 µM.

With `C[C@@H]1CN([C@@H](C)CO)S(=O)(=O)c2ccc(C#C[C@@H](C)O)cc2O[C@@H]1CN(C)Cc1ccccc1`, the activity change, negative = inhibition in experiment [1] (at 21 µM (top of the series)) is -27% (inactive). Besides, the AC50 in experiment [2] (setting [4]) was > 42 µM.

Turning to `C[C@@H]1CN([C@@H](C)CO)C(=O)Cc2cc(NC(=O)C3CCCCC3)ccc2O[C@H]1CN(C)C(=O)Nc1ccccc1`, the activity change, negative = inhibition in experiment [1] (at 21 µM (top of the series)) was -0.285% (inactive).

With `C[C@@H]1CN([C@H](C)CO)S(=O)(=O)c2ccc(C#C[C@@H](C)O)cc2O[C@H]1CN(C)Cc1ccccc1`, the activity change, negative = inhibition in experiment [1] (at 21 µM (top of the series)) was -15.2% (inactive).

Consider `C[C@H](O)C#Cc1ccc2c(c1)O[C@H](CN(C)Cc1ccccc1)[C@@H](C)CN([C@@H](C)CO)S2(=O)=O`, for which the activity change, negative = inhibition in experiment [1] (at 21 µM (top of the series)) was -24.7% (inactive). In addition, the AC50 in experiment [2] (setting [4]) and in experiment [2] (setting [3]) was > 42 µM throughout.

For the compound `C[C@H](O)C#Cc1ccc2c(c1)O[C@@H](CN(C)Cc1ccccc1)[C@H](C)CN([C@@H](C)CO)S2(=O)=O`, the activity change, negative = inhibition in experiment [1] (at 21 µM (top of the series)) was -8.31% (inactive). For the same compound, the AC50 in experiment [2] (setting [4]) and in experiment [2] (setting [3]) was > 42 µM each time.

Take `CCCNC(=O)c1cc2c(c(-c3cccc(-c4cccc(F)c4)c3)n1)[C@H](CCO)N([S@@](=O)C(C)(C)C)C2`: the activity change, negative = inhibition in experiment [1] (at 21 µM (top of the series)) is -8.81% (inactive). In addition, the AC50 in experiment [2] (setting [3]) is > 42 µM.
